This is an account of results in patent US20030134784A1, “Nucleic acids and corresponding proteins entitled 83P2H3 and CaTrF2E11 useful in treatment and detection of cancer” (priority 2000, published 2003).

Experiment [1] relates to 83P2H3/hCaT-expressing PC3 cell. Nature of the experiment: ERK phosphorylation in response to ion channel activators (anti-phospho-ERK Western blotting). It is filed as cell-based, human. To be noted: hCaT-expressing PC3 cells grown in 0.1% FBS, treated for 5 min. The source says:
(§1) FIG. 22. Mediation of ERK phosphorylation by hCaT via a variety of ion channel activators. Control and 83P2H3/hCaT-expressing PC3 cell were compared for their ability to induce ERK phosphorylation in response to ion channel activators known to regulate intracellular calcium levels in several cell types. […] Whole cell lysates were separated by SDS-PAGE and analyzed by Western blotting using an anti-phospho-ERK monoclonal antibody (New England Nuclear, Bedford, Mass.). Anti-ERK overlays were used to evaluate protein loading.
(§2) Many mammalian proteins have been reported to interact with signaling molecules and to participate in regulating signaling pathways (J Neurochem. 2001; 76:217-223). Using immunoprecipitation and Western blotting techniques, proteins are identified that associate with 83P2H3 and mediate signaling events. Several pathways known to play a role in cancer biology can be regulated by several of these genes, including phospholipid pathways such as P13K, AKT, etc, adhesion and migration pathways, including FAK, Rho, Rac-1, etc, as well as mitogenic/survival cascades such as ERK, p38, etc (Cell Growth Differ. 2000,11:279; J Biol Chem. 1999, 274:801; Oncogene 2000, 19:3003, J. Cell Biol. 1997, 138:913.). Using Western blotting techniques, the ability of 83P2H3 to regulate these pathways is examined. Cells expressing 83P2H3 and cells lacking these genes are either left untreated or stimulated with ions, channel activators, or antibodies. Cell lysates are analyzed using anti-phospho-specific antibodies (Cell Signaling, Santa Cruz Biotechnology) in order to detect phosphorylation and regulation of ERK, p38, AKT, P13K, PLC and other signaling molecules.
On the technique in general: A western blot detects proteins with antibodies after separation by electrophoresis.

Another experiment has as its system PC3-neo cells. The experiment is described as above. Type of experiment: cell-based, human. The conditions noted are these: PC3-neo cells grown in 0.1% FBS, treated for 5 min.
Source text: as §1, §2

The subject of another experiment is T helper lymphocytes. To be noted: regardless of HLA type; cited from earlier work.
The next experiment concerns HLA-DR. To be noted: cited from earlier work.

On to `CCCCCCCCCCCCCC(=O)O[C@@H]1[C@@H](C)[C@@]2(O)[C@@H](C=C(CO)C[C@]3(O)C(=O)C(C)=C[C@@H]23)[C@@H]2C(C)(C)[C@]12OC(C)=O` [PMA], for which the ERK phosphorylation entry (in experiment [1]; in the experiment on PC3-neo cells) was “induced ERK phosphorylation” each time.
As for `C[C@H](CCC(=O)O)C[C@H](C)C[C@H](C)C(=O)/C=C(\O)[C@H](C)C[C@H](C)C/C=C/[C@@H](C)[C@@H](O)[C@@H](C)[C@@H](O)C[C@@H]1CC[C@@](C)([C@H]2CC[C@@](C)([C@@H](C)O)O2)O1` [ionomycin], the ERK phosphorylation entry in experiment [1] is “induced ERK phosphorylation”.
The same measure, in the same setting: for LPA the value was “induced ERK phosphorylation”.
On to aKXVAAWTLKAAa, for which, in the experiment on T helper lymphocytes, the “Stimulation of the response of T helper lymphocytes” value is given as “stimulate the response of T helper lymphocytes from most individuals”. Further, the “Binding to HLA-DR alleles” value in the experiment with HLA-DR is given as “bind to most HLA-DR alleles”.
